Laboratory results published in patent US20030187003A1, “Pharmaceutical compositions and method for the treatment of retroviral infections” (priority 2000, published 2003).
Like-named read-outs stand apart in the source and are kept apart here.

How the values were obtained:
IN = IN (Human immunodeficiency virus type 1 group M subtype B, UniProt P04585); conditions: background section; read-out: IC50 inhibition of IN; cited from earlier work
[1] = tested on: HIV-1-derived vectors pseudotyped with the VSV-G envelope; experiment: microbe, parasite or virus in culture; assay type: cell-based; conditions: Human immunodeficiency virus 1, HEK-293T, read-out: EC50 inhibition of lentiviral transduction
[2] = molecular target: T1, recombinant His-tagged HIV-1 integrase (Human immunodeficiency virus type 1 group M subtype B, UniProt P04585); experiment: HIV-1 integrase overall integration assay, oligonucleotide-based; conditions: for inhibition of the overall integration reaction: in words
Protocol: (§1) Reactions were started by the addition of the enzyme. Inhibitors were incubated shortly with the reaction components before the addition of integrase. Reactions were allowed to proceed at 37° C. for 7 minutes and stopped by the addition of formamide loading buffer (95% formamide, 30 mM ethylenediamine tetraacetic acid, 0.1% xylene cyanol, 0.1% bromophenol blue, 0.1% sodium dilaurylsulfate SDS). In the overall integration assay, this reaction was allowed to proceed for 60 minutes before the addition of a formamide dye.

[3] = cytotoxicity, viability of mock-infected cells; assay type: cell-based; conditions: human, viability of mock-infected MT-4 cells
Protocol: Cytotoxicity of these compounds was determined in parallel by measuring the viability of mock-infected MT-4 or C8166 cells 5 days post-infection. The antiviral activity and cytotoxicity data, including average values and standard deviations for at least two separate experiments, are depicted in Table 2, wherein: CC50 represents the 50% cytotoxic concentration, i.e. the concentration that reduces by 50% the viability of MT-4 cells.

SIV (MAC251) = experiment: inhibition of virus-induced cytopathicity in MT-4 cells, SIV (MAC251); assay type: cell-based, Simian immunodeficiency virus; conditions: for EC50: Simian immunodeficiency virus, MT4, 120 h, read-out: EC50 SIV MAC251
HIV-2 (EHO) = experiment: inhibition of virus-induced cytopathicity in MT-4 cells, HIV-2 (EHO); assay type: cell-based; conditions: for EC50: Human immunodeficiency virus 2, MT4, 120 h, read-out: EC50 HIV-2 EHO
HIV-1 L1 = experiment: inhibition of virus-induced cytopathicity in MT-4 cells, HIV-1 clinical isolate L1; assay type: cell-based; conditions: Human immunodeficiency virus 1, MT4, 120 h, read-out: EC50 HIV-1 L1
[4] = molecular target: T1, recombinant His-tagged HIV-1 integrase; experiment: HIV-1 integrase 3′-processing assay, oligonucleotide-based; conditions: for inhibition of the 3-processing reaction: in words
Protocol: as §1

HIV-2 (ROD) = experiment: inhibition of virus-induced cytopathicity in MT-4 cells, HIV-2 (ROD); assay type: cell-based; conditions: for EC50: Human immunodeficiency virus 2, MT4, 120 h, read-out: EC50 HIV-2 ROD
HIV-1(IIIB) = experiment: inhibition of virus-induced cytopathicity in MT-4 cells, HIV-1 (IIIB); assay type: cell-based; conditions: for EC50: Human immunodeficiency virus 1, IIIB, MT4, 120 h, MT-4 cells, viral cytopathic effect, 5 days post-infection; for activity against the replication of HIV-1(IIIB): in words
[5] = molecular target: T1, recombinant His-tagged HIV-1 integrase; experiment: HIV-1 integrase strand transfer assay, oligonucleotide-based
[6] = molecular target: T2, Recombinant HIV-1 RT (HXB2) (Human immunodeficiency virus type 1 group M subtype B, UniProt P04585); experiment: inhibition of HIV-1 reverse transcriptase enzymatic activity; assay type: biochemical
T2 construct: Recombinant HIV-1 RT (HXB2) was obtained as described by Jonckheere et al; made in house
Source text: Poly(rC).oligo(dG) and poly (rA).oligo(dT) were used as template-primers, and 8-[^3H]-dGTP and [^3H]-dTTP were used as radiolabelled substrates.

HIV-1 L2 = assay type: cell-based
HIV-1 L4 = assay type: cell-based
HIV-1 L6 = assay type: cell-based; conditions: L6 versus wild type strain L1
[7] = MT-4 cells, viral cytopathic effect, 5 days post-infection
[8] = IC50 Poly(A).oligo(dT), template-primer poly(A).oligo(dT)
[9] = IC50 poly(C).oligo(dG), template-primer poly(C).oligo(dG)

Compound: [N-]=[N+]=Nc1cn([C@H]2C[C@H](N=[N+]=[N-])[C@@H](COP(=O)(O)O)O2)c(=O)[nH]c1=O [5-N3-AZUMP, 3′,5-diazido-2′,3′-dideoxyuridine 5′-monophosphate]
- IC50 (IN): 150 µM

Compound: Cc1cn([C@H]2C[C@H](N=[N+]=[N-])[C@@H](CO)O2)c(=O)[nH]c1=O [AZT, reference compound]
- EC50 [1]: 0.049 µM

Compound: Oc1nc(O)c2c(n1)Oc1nc(O)nc(O)c1C2c1ccc(I)cc1 [A]
- IC50 [2]: > 207 µM
- CC50 at 5 days [3]: > 276 µM
- EC50 (SIV (MAC251); [7]): > 276 µM
- EC50 (HIV-2 (EHO); [7]): > 276 µM
- EC50 (HIV-1 L1; [7]): > 276 µM
- IC50 [4]: > 207 µM
- EC50 (HIV-2 (ROD); [7]): > 276 µM
- EC50 (HIV-1(IIIB)): > 276 µM

Compound: Clc1nc(Cl)c2c(n1)Oc1nc(Cl)nc(Cl)c1C2c1ccccc1 [B]
- IC50 [2]: 25 ± 4.5 µM
- CC50 at 5 days [3]: 17.5 µM
- EC50 (SIV (MAC251); [7]): > 17.5 µM
- EC50 (HIV-2 (EHO); [7]): > 17.5 µM
- EC50 (HIV-1 L1; [7]): > 17.5 µM
- IC50 [4]: 74 ± 38.5 µM
- EC50 (HIV-2 (ROD); [7]): > 17.5 µM
- EC50 (HIV-1(IIIB)): > 17.5 µM

Compound: Oc1nc(O)c2c(n1)Oc1nc(O)nc(O)c1C2c1ccccc1 [C]
- IC50 [2]: 34.6 ± 11.3 µM
- inhibition of the overall integration reaction [2]: inhibited
- CC50 at 5 days [3]: > 383 µM
- EC50 (SIV (MAC251)): 194 µM
- EC50 (HIV-2 (EHO)): 169 ± 27 µM
- IC50 [5]: 782 ± 242 µM
- EC50 (HIV-1 L1): 116 ± 30 µM
- IC50 [4]: 22.4 ± 6.4 µM
- inhibition of the 3-processing reaction [4]: inhibited
- EC50 (HIV-2 (ROD)): > 383 µM
- IC50 [6, 8]: 33.1 ± 15.1 µM
- IC50 [6, 9]: 15.1 ± 5.9 µM
- EC50 (HIV-1(IIIB)): 170 ± 45 µM
- activity against the replication of HIV-1(IIIB) (HIV-1(IIIB)): active

Compound: COc1nc(O)nc2c1C(c1ccc([N+](=O)[O-])cc1)c1c(OC)nc(O)nc1O2 [D]
- IC50 [2]: > 250 µM
- CC50 at 5 days [3]: > 313 µM
- EC50 (SIV (MAC251); [7]): > 313 µM
- EC50 (HIV-2 (EHO); [7]): > 313 µM
- EC50 (HIV-1 L1; [7]): > 313 µM
- IC50 [4]: > 250 µM
- EC50 (HIV-2 (ROD); [7]): > 313 µM
- EC50 (HIV-1(IIIB)): > 313 µM

Compound: Oc1nc(O)c2c(n1)Oc1nc(O)nc(O)c1C2c1ccc(Br)cc1 [E]
- IC50 [2]: 298 ± 7.7 µM
- inhibition of the overall integration reaction [2]: inhibited
- CC50 at 5 days [3]: > 309 µM
- EC50 (SIV (MAC251)): > 309 µM
- EC50 (HIV-2 (EHO)): > 309 µM
- IC50 [5]: > 1240 µM
- EC50 (HIV-1 L1): > 309 µM
- IC50 [4]: 208 ± 82.2 µM
- inhibition of the 3-processing reaction [4]: inhibited
- EC50 (HIV-2 (ROD)): > 309 µM
- IC50 [6, 8]: > 494 µM
- IC50 [6, 9]: > 494 µM
- EC50 (HIV-1(IIIB)): 273 ± 38 µM
- activity against the replication of HIV-1(IIIB) (HIV-1(IIIB)): active

Compound: Oc1nc(O)c2c(n1)Oc1nc(O)nc(O)c1C2c1ccc(Cl)cc1 [F]
- IC50 [2]: 97.1 ± 93.8 µM
- CC50 at 5 days [3]: > 347 µM
- EC50 (SIV (MAC251); [7]): > 347 µM
- EC50 (HIV-2 (EHO); [7]): > 347 µM
- EC50 (HIV-1 L1; [7]): > 347 µM
- IC50 [4]: 144 ± 81.3 µM
- EC50 (HIV-2 (ROD); [7]): > 347 µM
- EC50 (HIV-1(IIIB)): > 347 µM

Compound: Oc1nc(S)nc2c1C(c1ccc(Cl)cc1)c1c(O)nc(S)nc1O2 [G]
- IC50 [2]: 1 ± 0.4 µM
- inhibition of the overall integration reaction [2]: inhibited
- CC50 at 5 days [3]: 137 µM
- EC50 (SIV (MAC251)): 100 µM
- EC50 (HIV-2 (EHO)): > 137 µM
- IC50 [5]: 201 ± 120 µM
- EC50 (HIV-1 L1): 101 ± 32 µM
- EC50 (HIV-1 L2; Human immunodeficiency virus 1): 95.6 ± 6.5 µM
- fold increase in EC50 (HIV-1 L2; L2 versus wild type strain L1): 0.9
- IC50 [4]: 0.9 ± 0.5 µM
- inhibition of the 3-processing reaction [4]: inhibited
- EC50 (HIV-1 L4; Human immunodeficiency virus 1): 163 ± 3.7 µM
- fold increase in EC50 (HIV-1 L4; L4 versus wild type strain L1): 1.6
- EC50 (HIV-2 (ROD)): > 137 µM
- IC50 [6, 8]: 35.2 ± 0.4 µM
- IC50 [6, 9]: 25.8 ± 15.9 µM
- EC50 (HIV-1(IIIB)): 56.8 ± 30 µM
- activity against the replication of HIV-1(IIIB) (HIV-1(IIIB)): active
- fold increase in EC50 (HIV-1 L6): 1.8

Compound: Cc1ccnc2c1NC(=O)c1cccnc1N2C1CC1 [nevirapine, reference compound]
- CC50 at 5 days [3]: > 97.6 µM
- EC50 (SIV (MAC251); [7]): > 97.6 µM
- activity against the replication of SIV (MAC251) (SIV (MAC251); at 98 μM in MT-4 cells): inactive
- EC50 (HIV-2 (EHO); [7]): > 97.6 µM
- activity against the replication of HIV-2 (EHO) (HIV-2 (EHO); at 98 μM in MT-4 cells): inactive
- EC50 (HIV-1 L1; [7]): 0.06 ± 0.01 µM
- EC50 (HIV-2 (ROD); [7]): > 97.6 µM
- activity against the replication of HIV-2 (ROD) (HIV-2 (ROD); at 98 μM in MT-4 cells): inactive
- EC50 (HIV-1(IIIB)): 0.04 µM

Compound: Dextran sulfate [reference compound]
- IC50 ([6]; template-primer poly(A).oligo(dT), read-out: IC50 Poly(A).oligo(dT)): 22 ± 8.8 µM
- IC50 ([6]; template-primer poly(C).oligo(dG), read-out: IC50 poly(C).oligo(dG)): 7.3 ± 3.2 µM
